This passage reports GI50 and TGI results from PubChem BioAssay (NCI).

Holding throughout (test): NCI anticancer screen, dose series, 48 h
For experiment [1], the system named is 786-0 renal.
For experiment [2], the system named is CCRF-CEM leukemia.
The subject of experiment [3] is COLO 205 colon.
The test system of experiment [4] is HCT-116 colon.
The test system of experiment [5] is IGROV1 ovarian.
Experiment [6] has as its system K-562 leukemia.
The test system of experiment [7] is PC-3 prostate.
The subject of experiment [8] is SK-MEL-2 melanoma.
Experiment [9] deals with SR leukemia.
Experiment [10] relates to U251 CNS.

Values joined by “and” are separate entries in the source; they are usually repeats but may differ in a detail not shown here. Identical values can stand only once.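 Cells were grown in 96-well plates and exposed to each compound for 48 hours at five concentrations; endpoints were interpolated linearly between bracketing concentrations, or set to the highest concentration if not reached. Here, GI50 denotes the concentration required for 50% inhibition of growth. TGI: concentration producing complete growth inhibition.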

In the case of `O=C(c1ccccc1)C(CN1CCCCC1)c1ccccc1` (centres undefined), the GI50 in experiment [1] is 1.91 µM; in experiment [2] it was 0.301 µM; in [3], 1.57 µM; in [4], 1.13 µM; in [5], 1.5 µM; in experiment [6] it was 0.712 µM. The GI50 in experiment [7] was 1.69 µM; in experiment [8] it was 2.85 µM; in experiment [9], 0.539 µM; in experiment [10], 1.48 µM. Also, the TGI in [1] came to 3.45 µM; in experiment [2], 2.34 µM; in experiment [3], 3.14 µM; in experiment [4], 2.46 µM; in experiment [5], 3.34 µM; in experiment [6], 14.2 µM. Moreover, the TGI in experiment [7] is 3.83 µM; in [8], 8.73 µM; in [9] it was 4.26 µM; in experiment [10] it was 3.24 µM.
Consider `CC1CCCC(C(O)CC2CC(=O)NC(=O)C2)C1O` (centres undefined), for which the TGI in experiment [1], in experiment [2], in [3], in experiment [4], in [5] and in experiment [6] was over 100 µM throughout. In addition, the TGI in experiment [7], in experiment [8], in [9] and in experiment [10] was over 100 µM in each case.
Regarding `C[n+]1c2cc(N)ccc2cc2ccc(N)cc21`, the GI50 is 1.33 µM [middle of 4 runs] in experiment [1]; 2.1 µM [middle of 4 runs] in [2]; 441 nM [middle of 4 runs] in experiment [3]; 622 nM [middle of 4 runs] in [4]; 1.46 µM [middle of 4 runs] in experiment [5]; 1.18 µM [middle of 4 runs] in experiment [6]. Also, the GI50 in experiment [7] was 696 nM [middle of 4 runs]; in [8] it was 1.47 µM [middle of 4 runs]; in [9], 687 nM [middle of 4 runs]; in [10], 733 nM [middle of 4 runs]. In addition, the TGI in experiment [4] was 5.55 µM and 11.1 µM and 5.51 µM; in experiment [7], 5.8 µM [middle of 4 runs]; in experiment [8], 5 µM [middle of 4 runs]; in [10], 4.22 µM [middle of 4 runs].
In the case of `COc1cc(NCCCN=C(N)NC(N)=NC(C)C)c2ncccc2c1`, the GI50 in experiment [1] is 50.7 µM; in [2] it was 7.61 µM; in experiment [3], 0.195 µM; in experiment [4], 3.31 µM; in [5], 0.467 µM; in [6], 7.56 µM. Further, the GI50 is 6 µM in experiment [7], 2.68 µM in experiment [8], 7.71 µM in [9] and 6.41 µM in experiment [10]. Moreover, the TGI in [1] was over 100 µM; in [2], 45.7 µM; in experiment [3], 1.92 µM; in [4], 30.3 µM; in experiment [5], 3.77 µM; in [6], over 95.1 µM. In addition, the TGI in experiment [7] is 35.5 µM; in experiment [8] it was 10.1 µM; in experiment [9], 45.8 µM; in [10] it was over 45.1 µM.
As to `C/C1=C/C(=O)O[C@@H]2C[C@@H](CC[C@H](C)/C=C\C=C\CC1)O[C@@](O)([C@@H]1CSC(=O)N1)C2`, the TGI in experiment [1] is over 10 µM; in experiment [2], over 10 µM; in [3] it was 0.36 µM; in experiment [4], over 10 µM; in experiment [5], 0.547 µM; in experiment [6], over 10 µM. Besides, the TGI in [7], in experiment [8], in [9] and in experiment [10] was over 10 µM in each case.
Turning to `CC(C)O/N=C/c1cc(NC(=S)OC(C)C)ccc1Cl`, the TGI in [1] was over 65.6 µM; in experiment [2], 34.6 µM; in experiment [3], over 81.3 µM; in [4] it was over 74.3 µM; in experiment [5], over 94.1 µM; in experiment [6], over 53.4 µM. Further, the TGI in [7] was over 100 µM; in experiment [8] it was over 61.7 µM; in [9], 45 µM; in experiment [10] it was over 70.2 µM.
Turning to `COCc1cc(C(=O)Nc2cc([C@H]3CC[C@@H](OC(=O)NC(C)C)C3)[nH]n2)n(C)n1`, the GI50 in experiment [1] was 11.2 µM; in [2] it was 4.78 µM; in experiment [3], 3.15 µM; in experiment [4], 2.61 µM; in experiment [5], 4.74 µM; in experiment [6], 12.1 µM. In addition, the GI50 in experiment [7] was 10.3 µM; in experiment [8], 10.6 µM; in experiment [9] it was 1.32 µM; in experiment [10] it was 8.94 µM. The TGI is over 100 µM in experiment [1]; 70.2 µM in experiment [2]; 16.3 µM in experiment [3]; 43 µM in experiment [4]; over 100 µM in experiment [5]; over 100 µM in experiment [6]. Besides, the TGI in [7] is 73.6 µM; in [8], 27.2 µM; in experiment [9], 9.9 µM; in experiment [10] it was over 100 µM.
On to `Oc1ccc(-c2nc3ccccc3s2)cc1CN(Cc1ccccn1)Cc1ccccn1`, for which the GI50 in experiment [1] is 0.353 µM; in experiment [2] it was 1.09 µM; in experiment [3], 3.4 µM; in experiment [4], 0.59 µM; in [5] it was 1.96 µM; in [6], 0.674 µM. For the same molecule, the GI50 is 1.09 µM in experiment [7], 2.5 µM in experiment [8], 2.14 µM in experiment [9] and 0.76 µM in experiment [10]. The TGI was 10.1 µM in experiment [1]; over 100 µM in [2]; 15.2 µM in [3]; 14 µM in [4]; 15.8 µM in experiment [5]; 35.5 µM in experiment [6]. Besides, the TGI in [7] is 21.8 µM; in [8] it was 9.69 µM; in experiment [9], over 100 µM; in experiment [10], 17.6 µM.
On to `Cc1nnc(-c2cccc(-c3ccc(C(=O)NCC4CC4)cc3)c2)o1`, for which the GI50 in experiment [1], in [2], in [3], in experiment [4], in experiment [5] and in [6] was over 25 µM throughout. Further, the GI50 in [7], in experiment [8], in [9] and in experiment [10] was over 25 µM in each case. In addition, the TGI in [1], in experiment [2], in experiment [3], in experiment [4], in [5] and in [6] was over 25 µM each time. In addition, the TGI in experiment [7], in [8], in experiment [9] and in experiment [10] was over 25 µM in each case.
